*1 amine or outer side, *2 acyl side, *3 side chain or, on linkers, in order; H or OH if unused. Where a SMILES comes first, the peptide text is derived from it. [ ]: non-standard residue; d: D form. The star is where a group is joined. PABC = O=C(OCc1ccc(N[*:1])cc1)[*:2]; hPhe = N[C@@H](CCc1ccccc1)C(=O)O; X1 = CC(=O)NCCCCCC(=O)NN*; Boc = CC(C)(C)OC(=O)*; Nlys = NCCCCNCC(=O)O; X2 = CC(=O)NN*

Data set [1] has as its system Rabbit plaque aorta or normal rabbit aorta. In words: Ex vivo blood vessel binding assay. More on the design: species or system New Zealand white rabbits. The conditions noted are these: radiolabeled compound incubated with rabbit aorta (0.5 cm) in phosphate buffered saline for 2 hours at 37° C; bound compound as percentage of the incubated compound. From the text:
Normal aorta was obtained from New Zealand white rabbits. Aorta bearing atherosclerotic plaque was obtained from New Zealand white rabbits balloon stripped along the abdominal aorta and placed on a high fat diet (0.5% cholesterol) for 16-22 weeks. Vascular injury was produced with a 3-F Fogarty catheter along the abdominal aorta and left iliofemoral artery. This procedure generates an accelerated complex lesion development with a lipid rich core covered by a fibrous cap in rabbits. Rabbit plaque aorta or normal rabbit aorta (0.5 cm) was incubated with 10 nCi of ^14C labeled compound or 1.5 μCi of ^99m Tc labeled compound or 0.135 μCi of ^111In labeled compound or 0.135 μCi of ^68Ga labeled compound or 0.135 µCi of ^153Gd labeled compound diluted in phosphate buffered saline (450 μL) for 2 hours at 37° C. The supernatant from this sample was collected and analyzed by HPLC to determine compound stability in presence of blood vessels. The blood vessel tissue was then washed with phosphate buffered saline (3×10 mL). Phosphate buffered saline (10 ml) was added to the tissue and incubated at 37° C. for 1 hour. The tissue was then washed with phosphate buffered saline (3×10 mL). The washed tissue was oxidized in a tissue oxidizer for C-14 labeled compounds. The counts in the oxidized tissue were determined on a beta counter. Blood vessels incubated with ^99m Tc labeled compound or ^111In labeled compound or ^68Ga labeled compound or ^153Gd labeled compound were counted on a gamma counter. The amount of compound bound to the tissue was determined as a percentage of the incubated compound. This was calculated using the following formula: [formula]

The subject of data set [2] is aorta of atherosclerotic rabbit model. Conditions: in vivo.
Procedure: Atherosclerosis was induced in New Zealand White male rabbits (3 kg) with aortic balloon endothelial injury followed by feeding a 0.5% cholesterol diet for 22 weeks. Test compounds were radiolabeled(^14C, ^99mTc, or ^111In as described above) and administered at 0.02-1.0 mCi/kg to anesthetized rabbits in a single, bolus injection vis the marginal ear vein. Blood samples were collected from the central ear artery at 0, 2, 5, 7, 10, 15, 30, and 60 minutes post injection. Rabbits were euthanized at 60 minutes post injection for tissue harvesting (blood, muscle, bile, urine, kidney, liver, spleen, heart, lung, colon, small intestine, stomach, testes). Abdominal aorta (upper, middle, and lower) and left and right femoral arteries were collected. Both plaque bearing and non-plaque bearing rabbits were administered compounds to compare aorta uptake. All samples were weighed and assayed for radioactivity. Tissue uptake is expressed as percent of injected dose per gram of tissue (% ID/g). The aorta to blood ratios were calculated from the % ID/g data.
Data set [3] concerns aorta of apolipoprotein E (apoE) knockout mouse. The conditions noted are these: in vivo.
Procedure: (§1) Mice were fed a high-fat diet to accelerate plaque formation and compounds were tested in the mice between 37-41 weeks on diet. Test compounds were radiolabeled (^14C, ^99mTc, or ^111In as described above) and administered at 0.02-4.0 mCi/kg to anesthetized mice in a single, bolus injection via the tail vein. Blood samples were collected via the tail between 0-30 minutes postinjection for pharmacokinetic analysis and mice were euthanized by CO2 at 60 minutes for tissue harvesting. The aorta were flushed with saline through the left ventricle exiting via the femoral vein. The aorta were then removed from the heart to the renal bifurcation and additional tissue samples collected (blood, muscle, liver, kidney, heart, lung, spleen and innominate artery). All samples were weighed and assayed for radioactivity. Tissue uptake is expressed as percent of injected dose per gram of tissue (% ID/g). The aorta to blood ratios were calculated from the % ID/g data.
The conditions of data set [4]: mouse, in vivo, iv.
Procedure: as §1
The target in another data set is Aminopeptidase N (Homo sapiens, UniProt P15144). In words: Aminopeptidase N cleavage of test substrates. The data set is classed as biochemical. The conditions noted are these: Boc removed from N-terminus before assay; 0.5 mM test substrate, 0.02 U APN, 37° C, 25 minutes. The protocol: The test compounds were dissolved in 50:50 TFA:dichloromethane and allowed to stand at ambient temperature under nitrogen for 10 minutes to remove the Boc protecting group from the N-terminus amino acid. The solutions were concentrated and the resulting oily residue was dissolved in 50:50 acetonitrile:water and lyophilized. The resulting flocculent solids were used directly in the APN assay.
Aminopeptidase N cleaves amino acids at the N-terminus of proteins and peptides attached to another amino acid. A stock solution of test substrates was prepared in 100% DMSO at a concentration of 8 mM. The stock solution (4.7 μL) was added to buffer (50 mM Hepes/pH 7.5, 10 mM CaCl2, 0.1% Brij) for a final concentration of 0.5 mM test substrate in the reaction. To this reaction solution 0.02 U of the enzyme (APN) was added, the solution was mixed, and immediately 30 μL of the mix was transferred to HPLC vials containing acetic acid (15 μL) for t=0 minutes measurement. The rest of the mix in the test tube was incubated at 37° C. for 25 minutes. At the 25 minutes time point 30 μL of the mix was transferred to an HPLC vial containing acetic acid (15 μl) for the t=25 minute measurement. The test substrates and products were separated by reversed phase HPLC on a Zorbax SB-C18 column (4.6×150 mm, 5 micron) using a water:acetonitrile gradient containing 0.1% TFA at a flow rate of 1.0 mL/min and with UV detection. The peak areas were integrated and the substrate peak area was used to determine rate constant k in the following equation: K={(% hydrolyzed/100)*[S]}/[E]*[time] where S=test substrate concentration in μmoles
E=aminopeptidase N concentration in units/ml
K=μmoles of substrate hydrolyzed/minute/unit enzyme

Aminopeptidase N, sequence (P15144 whole entry, species assumed): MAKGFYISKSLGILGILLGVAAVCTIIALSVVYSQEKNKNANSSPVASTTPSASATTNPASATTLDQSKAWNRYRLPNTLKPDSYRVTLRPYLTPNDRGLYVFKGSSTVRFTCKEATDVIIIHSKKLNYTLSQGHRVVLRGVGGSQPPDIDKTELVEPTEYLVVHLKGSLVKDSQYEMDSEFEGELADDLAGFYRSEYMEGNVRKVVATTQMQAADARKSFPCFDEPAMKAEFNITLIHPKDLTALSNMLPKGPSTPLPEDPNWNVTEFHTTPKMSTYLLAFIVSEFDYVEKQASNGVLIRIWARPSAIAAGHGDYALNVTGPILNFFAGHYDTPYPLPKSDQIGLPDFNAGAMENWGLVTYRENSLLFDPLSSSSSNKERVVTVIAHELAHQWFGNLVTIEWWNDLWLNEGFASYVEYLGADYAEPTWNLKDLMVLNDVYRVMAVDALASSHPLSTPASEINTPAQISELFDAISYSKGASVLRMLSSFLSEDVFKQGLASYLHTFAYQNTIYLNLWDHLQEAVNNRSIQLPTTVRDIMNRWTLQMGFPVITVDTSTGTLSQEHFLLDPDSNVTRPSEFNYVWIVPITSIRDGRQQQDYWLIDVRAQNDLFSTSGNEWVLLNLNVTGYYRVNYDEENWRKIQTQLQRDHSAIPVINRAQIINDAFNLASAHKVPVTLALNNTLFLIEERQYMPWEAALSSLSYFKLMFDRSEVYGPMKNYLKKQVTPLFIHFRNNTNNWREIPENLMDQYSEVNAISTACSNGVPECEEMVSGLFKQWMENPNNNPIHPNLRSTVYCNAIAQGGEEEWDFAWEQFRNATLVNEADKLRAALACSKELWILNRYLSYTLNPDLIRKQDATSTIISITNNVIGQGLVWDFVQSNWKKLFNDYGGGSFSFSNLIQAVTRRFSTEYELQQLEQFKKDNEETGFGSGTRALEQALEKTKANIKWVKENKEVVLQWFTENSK

With `CC(=O)NCCCCCC(=O)NNC(=O)[C@@H](CC(C)C)NC(=O)OCc1ccc(NC(=O)[C@H](CC(C)C)NC(=O)[C@H](CC(C)C)NC(=O)CN(CCCCNC(=O)OC(C)(C)C)C(=O)[C@H](CC(C)C)NC(=O)[C@@H]2CCCN2C(C)=O)cc1` [Example 128, Ac-PL-NLys(Boc)˜LL-PABA-CO-d-Leu-Ahxh-H] (Ac-PL[Nlys](Boc)LL[PABC][dL]-X1), the “Tissue Binding %” value in data set [1] was 5.77%. In data set [2], the “Aorta/Blood (Plaque Rabbit)” value stood at 1.93. Also, in data set [3], the “Aorta/Blood Ratio” value is 2.3.

Compound `CC(=O)NNC(=O)[C@@H](CC(C)C)NC(=O)OCc1ccc(NC(=O)[C@H](CC(C)C)NC(=O)[C@H](CCc2ccccc2)NC(=O)CN(CCCCNC(=O)OC(C)(C)C)C(=O)[C@H](CC(C)C)NC(=O)[C@@H]2CCCN2C(C)=O)cc1` [Example 142] (Ac-PL[Nlys](Boc)[hPhe]L[PABC][dL]-X2) displayed a tissue uptake at 1 h in data set [4] of 2.1 %ID/g. Moreover, in data set [3], the “Aorta/Blood Ratio” value came out at 1.9.

On to “Boc-d-Phe[p-(Ac-PL-NLys(Boc)˜Hphe-L-NH)]-Ahxh-H [Example 147]”, for which, in data set [1], the “Tissue Binding %” value was 44.73%. In addition, in data set [2], the “Aorta/Blood (Plaque Rabbit)” value amounted to 9.05. Also, the “Aorta/Blood Ratio” value in data set [3] was determined as 8.8.

For `CC(C)C[C@H](NC(=O)OC(C)(C)C)C(=O)Nc1ccc(C[C@@H](NC(=O)OC(C)(C)C)C(=O)NNC(=O)CCCCCN)cc1.O=CO` [Example 83, N-[(2R)-3-(4-{(2S)-2-[(tert-Butoxy)carbonylamino]-4-methylpentanoylamino}phenyl)-2-[(tert-butoxy)carbonylamino]propanoylamino]-6-aminohexanamide, Formic Acid Salt], the “Rate of APN Hydrolysis of Test Substrates” value at Aminopeptidase N is listed as 0.43 μmoles/minute/U.

Broadly, the tissue uptake is the percentage of the injected dose found per gram of tissue. Higher therefore signals strong accumulation.

These data come from patent US20070014721A1, “Hydrazide conjugates as imaging agents” (priority 2005, published 2007).
